Data from patent US20230134376A1, “METHOD FOR QUANTITATIVE IMAGING OF THE METABOLIC STATUS OF A LESION” (priority 2020, published 2023).

Key:
NADH/NAD+ ratio = assay: FLIM phasor quantification of NADH/NAD+ ratio (anaerobic glycolysis) in incisional skin wound; assay type: in vivo, mice (C57Bl6/J); conditions: for NADH/NAD+ ratio in perilesional area vs untreated condition (in words): comparison between first 10 values of each condition, t-test; for line slope of linear regression of NADH/NAD+ ratio vs untreated (in words): deviation between slopes test; for slope of gradient of NADH/NAD+ ratio vs distance from wound: untreated −0.267±0.06
Excerpt: FIG. 2: Measurement of anaerobic glycolysis in wound by FLIM quantification of NADH/NAD^+ ratio. Phasor analysis of free and bound NADH fluorescence allows a quantification of their relative increase. A, map of a gradient of NADH/NAD+ ratio (grey). Wound margin is highlighted with a dashed line. All scale bars 100 μm. B, phasor analysis of FLIM NADH fluorescence. NADH region of the phasor plot was divided in five sub-regions along the major axis and each is associated with an intensity value (0-20, 20-40, 40-60, 60-80, 80-100). […] D, NADH/NAD^+ ratio percentage as a function of distance from wound (grey). […] NADH/NAD^+ ratio is lower in perilesional area of DCA-treated mice (grey line vs grey line of D, comparison between first 10 values of each condition, t-test ****, P<0.0001). n=3 mice.
FIG. 8. Effect of the mitochondrial respiratory chain in the measurement of NADH/NAD^+ ratio as expression of glycolysis in wound. A, NADH/NAD^+ ratio percentage as a function of distance from wound. […] NADH/NAD^+ ratio is lower in perilesional area of Antimycin A-treated mice (bottom graph vs grey line for untreated condition, comparison between first 10 values of each condition, t-test, P<0.0001). […] B, map of a gradient of NADH/NAD+ ratio (grey) in wound in untreated (n=4) or mice treated with Rotenone (n=3) and Antimycin A (n=2). Wound margin is highlighted with a dashed line. All scale bars 20 μm.
On day 1 after wounding, FLIM images were acquired with 2PM and stitched to produce lifetime XYZ mosaics (600-1000 μm wide and 200 μm deep) (FIG. 2a). Common FLIM imaging has slow acquisition times, which are required to collect enough photons to reconstruct a time decay curve. This was compensated by the use of a time correlated single-photon counting (TCSPC) 16-channel parallel detector, with an average counting speed of 80 MHz which allowed faster 3D scanning of the mosaic over lesion area^31. The ratio of free to protein-bound NADH has been known to be associated with the ratio of NAD^+ to NADH in small intestine epithelial cells^32 and breast cancer cells^33. Protein-bound NADH has a complex multi-exponential lifetime decay that has been related to its binding to different enzymes, such as malate dehydrogenase and lactate dehydrogenase^34. Standard approaches revolved on a characterization by fitting with a two-exponential curve, corresponding to a short or long lifetime range. This approximation is however misleading because free and protein-bound NADH have common exponential components and the NADH binding sites with different enzymes cannot be considered^32, 35. In fact, in our case this approach was ineffective to discriminate between untreated and DCA-treated mice (FIG. 7). […] Instead, phasor analysis^32, 36 was used. In accordance with a previous report^37, we designed an analysis that first divides the phasor cloud into five regions (FIG. 2b) corresponding to a gradient of prevailing anaerobic glycolysis in regions of lower lifetimes towards a region where more oxidative phosphorylation occurs. Pixels attributed to each region were then associated to discrete values of decreasing intensity, and therefore quantification of pixel intensity on the resulting image was proportional to the relative increase in anaerobic glycolysis. By linearizing images, we obtained a spatial distribution of anaerobic glycolysis from wound profile (FIG. 2c). At lesion margin, gradient of NADH/NAD^+ ratio corresponded to 29.1±0.4% and decreased until to 2.6±0.1% distance (range of 200-500 μm) from the wound. The decrease was evaluated with a linear regression fitting as the simplest fitting model for testing the overall deviation from zero slope curve (linear regression fitting with a slope of −0.050±0.0016 μm^−1; black line with 95% CL bands; deviation from zero slope test, P<0.0001) (FIG. 2d). An increased anaerobic glycolysis around wound margins was also evident in XZ maximum intensity projection images of the maps (FIG. 2e). […]

excisional skin wound = assay: Full-thickness excisional skin wound healing model, kinetic analysis of wound area; assay type: in vivo, mice (C57BL/6J); conditions: for DCA-mediated delayed wound closure (measurement of wound area) compared to control mice: single administration 300 mg/Kg i.p. 1 h prior skin wounding
Experimental: FIG. 1: In vivo relevance of the cell metabolic adaptation in skin repair. The excisional skin wound healing model was used. Left, kinetic analysis of skin wound areas was performed. Values represent mean±SD. Right, representative macroscopic images of untreated and DCA treated mice are shown at the indicated days after wounding. Bar, 5 mm. *P<0.05, **P<0.01; Student's t-test. Untreated, n=8; DCA, n=9. One experiment shown out of two performed with similar number of animals.
In order to determine the relevance of wound acidification in healing outcome in vivo, the pyruvate dehydrogenase kinase (Pdk) inhibitor dichloroacetate (DCA) was used in a model of full-thickness excisional skin wounding to promote glucose oxidation over anaerobic glycolysis, thus interfering with local acidosis.
Excisional model of skin injury. A full-thickness excisional skin injury model was performed as previously described^7. Mice were anesthetized with 10 μL/g of weight of Ketamine (final concentration 10 mg/mL) and Xylazine (final concentration 1 mg/mL) in saline buffer. As described^7, a full-thickness wound (from skin to underlying panniculus carnosus) was generated with disposable biopsy punch (8-mm diameter). Gentamicin was immediately applied to limit gross bacterial infections, not evident from histological examination carried out at different time points of the experiment. Mice were optionally treated with a solution of sodium dichloroacetate (DCA; Sigma-Aldrich Corp.), which was injected i.p. in 10-12 weeks-old C57BL/6J with a dosage of 300 mg/Kg 1 h before skin wounding. PBS or saline were used in control mice. As previously described^7, the skin wounds of each mouse were digitally photographed and measured during wound healing by tracing them on a transparency, calculated with the ImageJ-Fiji software, and the variations in time expressed as a percentage of the initial wound area.

Row | Molecule | anaerobic glycolysis (NADH/NAD+ ratio) at perilesional area (NADH/NAD+ ratio; DCA 300 mg/Kg i.p., 1 h, mean of the first 10 values, untreated 29.1±0.4%, P<0.0001) | gradient steepness, slope of linear regression of NADH/NAD+ ratio vs distance from wound (NADH/NAD+ ratio; DCA 300 mg/Kg i.p., 1 h, untreated −0.050±0.0016, P<0.0001) | NADH lifetime decays in perilesional regions fitted with a two-exponential decay function, treated vs untreated (NADH/NAD+ ratio; Student t-test, P>0.05) | NADH/NAD+ ratio in perilesional area vs untreated condition (in words) (NADH/NAD+ ratio) | line slope of linear regression of NADH/NAD+ ratio vs untreated (in words) (NADH/NAD+ ratio; P<0.0001) | DCA-mediated delayed wound closure (measurement of wound area) compared to control mice (excisional skin wound; day 1, P=0.005) | DCA-mediated delayed wound closure (measurement of wound area) compared to control mice (excisional skin wound; day 2, P=0.004) | DCA-mediated delayed wound closure (measurement of wound area) compared to control mice (excisional skin wound; day 3, P=0.05) | DCA-mediated delayed wound closure (measurement of wound area) compared to control mice (excisional skin wound; day 4, P=0.02) | DCA-mediated delayed wound closure (measurement of wound area) compared to control mice (excisional skin wound; day 5, P=0.002) | DCA-mediated delayed wound closure (measurement of wound area) compared to control mice (excisional skin wound; day 6, P=0.01) | DCA-mediated delayed wound closure (measurement of wound area) compared to control mice (excisional skin wound; day 7, P=0.03) | wound closure curve compared to mice treated with vehicle alone (excisional skin wound; single administration 300 mg/Kg 1 h prior skin wounding, n=9 vs n=8) | slope of gradient of NADH/NAD+ ratio vs distance from wound (NADH/NAD+ ratio; Antimycin A 5 μM i.d. 1 h before imaging, P<0.0001) | glycolysis at wound margin (NADH/NAD+ ratio) (NADH/NAD+ ratio; Antimycin A 5 μM i.d., untreated 20.28±0.41%, P<0.0001) | glycolysis in regions distant from the wound (NADH/NAD+ ratio; Rotenone 20 μM local) | slope of gradient of NADH/NAD+ ratio vs distance from wound (NADH/NAD+ ratio; Rotenone 20 μM local (i.d.) 1 h before imaging, P<0.0001) | fraction of anaerobic glycolysis at wound margin (NADH/NAD+ ratio; Rotenone 20 μM local (i.d.), untreated 20.28±0.41%, P>0.05)
1 | O=C([O-])C(Cl)Cl.[Na+] [DCA, sodium dichloroacetate] | 8.0±0.2% | −0.035±0.0023 μm^−1 | could not show significant differences | lower | reduction in line slope | −28.3% | −27.1% | −22.5% | −24.5% | −30.5% | −20.4% | −17.4% | significantly delayed curve |  |  |  |  | 
2 | Antimycin A |  |  |  | lower | reduction in line slope |  |  |  |  |  |  |  |  | −0.046±0.08 μm^−1 | 8.37±0.49% |  |  | 
3 | C=C(C)[C@H]1Cc2c(ccc3c2O[C@@H]2COc4cc(OC)c(OC)cc4[C@@H]2C3=O)O1 [Rotenone] |  |  |  | no significant decrease in value | significant reduction in line slope |  |  |  |  |  |  |  |  |  |  | increased glycolysis in regions distant from the wound | −0.113±0.002 μm^−1 | 20.08±0.21%
